Patent US8778919B2, “Cyclic anilino—pyridinotriazines” (Janssen Pharmaceutica NV, priority 2005, dated 2014)

Assays:
CDK3/cyclinE (h) = CDK3/cyclinE (h) (Homo sapiens, UniProt Q00526); test: Kinase profiling C3.5 CDK3/cyclinE human; type: biochemical; settings: test concentration of 10^−6 M
Experimental: (§1) The in vitro inhibition of a panel of kinases was assessed using either the glass-fiber filter technology as described by Davies, S. P. et al., Biochem J. (2000), 351; p. 95-105. In the glass-fiber filter technology the activity of the kinase of interest is measured using an appropriate substrate that is incubated with the aforementioned kinase protein in the presence of (^33P) radiolabeled ATP. (^33P) Phosporylation of the substrate is subsequently measured as radioactivity bound on a glassfiber-filter.
(§2) All kinases are pre-diluted to a 10× working concentration prior to addition into the assay. The composition of the dilution buffer for each kinase is detailed below.
(§3) All substrates are dissolved and diluted to working stocks in de-ionised water, apart from histone H1 that is stored in 10× working stock in 20 mM MOPS pH 7.4.
(§4) In a final reaction volume of 25 μl, CDK3/cyclinE (h) (5-10 mU) is incubated with 8 mM MOPS pH 7.0, 0.2 mM EDTA, 0.1 mg/ml histone H1, 10 mM MgAcetate and [γ-^33P-ATP] (specific activity approx. 500 cpm/pmol, concentration as required). The reaction is initiated by the addition of the MgATP mix. After incubation for 40 minutes at room temperature, the reaction is stopped by the addition of 5 μl of a 3% phosphoric acid solution. 10 μl of the reaction is then spotted onto a P30 filtermat and washed three times for 5 minutes in 75 mM phosphoric acid and once in methanol prior to drying and scintillation counting.

CDK7/cyclinH/MAT1 (h) = CDK7/cyclinH/MAT1 (h) (Homo sapiens, UniProt P50613); test: Kinase profiling C3.8 CDK7/cyclinH/MAT1 human; type: biochemical; settings: CDK7/cyclinH/MAT1, test concentration of 10^−6 M
Experimental: as §1, §2, §3
as §4, with “CDK7/cyclinH/MAT1” for “CDK3/cyclinE”, “500 μM peptide,” for “0.1 mg/ml histone H1,”

CDK2/cyclinA (h) = CDK2/cyclinA (h) (Homo sapiens, UniProt P24941); test: Kinase profiling C3.3 CDK2/cyclinA human; type: biochemical; settings: test concentration of 10^−6 M
Experimental: as §1, §2, §3
as §4, with “CDK2/cyclinA” for “CDK3/cyclinE”

CDK2/cyclinE (h) = CDK2/cyclinE (h) (Homo sapiens, UniProt P24941); test: Kinase profiling C3.4 CDK2/cyclinE human; type: biochemical; settings: test concentration of 10^−6 M
Experimental: as §1, §2, §3
as §4, with “CDK2/cyclinE” for “CDK3/cyclinE”

GSK-3α = GSK-3α (Homo sapiens, UniProt P49840); test: GSK-3 kinase assay (C1), GSK-3α; type: biochemical; settings: 1 μM ATP, read-out: C1 Score α
Experimental: (§5) In vitro GSK-3 assays were performed at room temperature in a 100 μl reaction volume of 25 mM Tris (pH 7.4) containing 10 mM MgCl2.6H2O, 1 mM DTT, 0.1 mg/ml BSA, 5% glycerol, 5.7 ng/μl GSK-3β or 0.25 ng/μl GSK-3α, 5 μM biotinylated CREB peptide, 1 μM ATP, 0.85 μCi/ml ^33P-ATP and a suitable amount of a test compound. After one hour, the reaction was terminated by adding 70 μl of Stop mix (0.1 mM ATP, 5 mg/ml streptavidin coated PVT SPA beads, pH 11.0). The beads were allowed to settle overnight and the radioactivity attached to the beads was counted in a microtiter plate scintillation counter and compared with the results obtained in a control experiment (without the presence of a test compound) in order to determine the percentage of GSK-3 inhibition. The IC50 value, i.e. the concentration (M) of the test compound at which 50% of GSK-3 is inhibited, was calculated from the dose response curve obtained by performing the above-described GSK-3 assay in the presence of different amounts of the test compound. Score 1=pIC50 value<6, Score 2=pIC50 value from 6-7, Score 3=pIC50 value from 7-8, Score 4=pIC50 value>8.

GSK-3β = GSK-3β (Homo sapiens, UniProt P49841); test: GSK-3 kinase assay (C1), GSK-3β; type: biochemical; settings: 1 μM ATP, read-out: C1 Score β
Experimental: as §5

CDK5/p35 human = CDK5/p35 human (Homo sapiens, UniProt Q00535); test: Kinase profiling C3.6 CDK5/p35 human; type: biochemical; settings: CDK5/p35, test concentration of 10^−6 M
Experimental: as §1, §2, §3
as §4, with “CDK5/p35 human” for “CDK3/cyclinE (h)”

CDK6/cyclinD3 human = CDK6/cyclinD3 human (Homo sapiens, UniProt Q00534); test: Kinase profiling C3.7 CDK6/cyclinD3 human; type: biochemical; settings: CDK6/cyclinD3, test concentration of 10^−6 M
Experimental: as §1, §2, §3
as §4, with “CDK6/cyclinD3 human” for “CDK3/cyclinE (h)”

CDK1/cyclinB (h) = CDK1/cyclinB (h) (Homo sapiens, UniProt P06493); test: Kinase profiling C3.2 CDK1/cyclinB human; type: biochemical; settings: test concentration of 10^−6 M
Experimental: as §1, §2, §3
as §4, with “CDK1/cyclinB” for “CDK3/cyclinE”

Chang cells = test: GSK-3 cellular assay (C2): 14C-D-glucose incorporation into glycogen; type: cell-based; settings: increase in D-glucose incorporation into glycogen, test concentration of 10^−6 M
Experimental: Test compounds were tested for their ability to increase the incorporation of ^14C-D-glucose into glycogen in living cells. To do this, Chang cells (360,000 cells/well) were cultured in 0.5 ml of MEM Rega 3 medium supplemented with 10% fetal calf serum, 1% L-glutamine and 2% sodium carbonate. After 3 days, cells were washed with 0.5 ml of phosphate-buffered saline and overlayed with 1 ml of serum- and glucose-free DMEM medium. Then, 2 μl of compound in DMSO and 50 μl substrate (3 mM glucose and 0.5 μCi ^14C-D-glucose were added and the cultures were incubated for 90 min. Cells were then extracted with 0.5 ml of 20% KOH for 60 min at 37° C. and the cell lysates were transferred to 10 ml tubes containing 300 μl of 1 mg/ml glycogen as […]. Following the addition of 2 ml ethanol, total glycogen was precipitated overnight at −20° C. and the precipitates were recovered by centrifugation. Precipitates were then resuspended in 1 ml of water and transferred to scintillation counter vials. and the amount of ^14C-D-glucose incorporation into glycogen was measured by scintillation counting. Scores for the compounds according to the invention, were obtained at a test concentration of 10^−6 M. Score 1=10-30% increase, Score 2=30-60% increase, Score 3=60-80% increase and Score 4=>80% increase in D-glucose incorporation.

Sequence of CDK6/cyclinD3 human (Q00534 whole entry): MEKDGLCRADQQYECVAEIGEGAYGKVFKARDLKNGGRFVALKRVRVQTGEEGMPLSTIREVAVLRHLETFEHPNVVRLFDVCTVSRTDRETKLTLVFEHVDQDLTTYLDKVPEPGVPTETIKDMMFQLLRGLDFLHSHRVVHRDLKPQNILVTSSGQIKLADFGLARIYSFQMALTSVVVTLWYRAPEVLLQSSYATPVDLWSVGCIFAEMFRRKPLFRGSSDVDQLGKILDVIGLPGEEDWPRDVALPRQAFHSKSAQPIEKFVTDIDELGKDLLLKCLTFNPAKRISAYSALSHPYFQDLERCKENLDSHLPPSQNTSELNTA
Sequence of CDK6/cyclinD3 human (P30281 whole entry partner): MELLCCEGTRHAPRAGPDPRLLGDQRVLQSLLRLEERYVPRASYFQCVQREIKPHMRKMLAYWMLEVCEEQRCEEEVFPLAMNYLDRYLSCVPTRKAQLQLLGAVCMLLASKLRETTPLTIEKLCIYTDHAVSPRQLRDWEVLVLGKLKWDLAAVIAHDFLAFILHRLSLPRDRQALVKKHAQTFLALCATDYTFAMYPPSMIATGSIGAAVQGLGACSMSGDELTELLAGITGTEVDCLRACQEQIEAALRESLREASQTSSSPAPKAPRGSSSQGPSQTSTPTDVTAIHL
Sequence of CDK5/p35 human (Q00535 whole entry): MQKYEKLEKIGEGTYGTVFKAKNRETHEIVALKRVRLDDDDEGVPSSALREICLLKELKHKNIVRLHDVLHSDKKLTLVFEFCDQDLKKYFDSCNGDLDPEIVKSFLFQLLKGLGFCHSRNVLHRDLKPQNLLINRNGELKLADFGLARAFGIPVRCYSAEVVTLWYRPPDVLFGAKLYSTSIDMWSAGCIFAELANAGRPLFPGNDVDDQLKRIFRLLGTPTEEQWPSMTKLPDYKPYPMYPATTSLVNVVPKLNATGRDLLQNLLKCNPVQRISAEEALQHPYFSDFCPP
Sequence of CDK5/p35 human (Q15078 whole entry partner): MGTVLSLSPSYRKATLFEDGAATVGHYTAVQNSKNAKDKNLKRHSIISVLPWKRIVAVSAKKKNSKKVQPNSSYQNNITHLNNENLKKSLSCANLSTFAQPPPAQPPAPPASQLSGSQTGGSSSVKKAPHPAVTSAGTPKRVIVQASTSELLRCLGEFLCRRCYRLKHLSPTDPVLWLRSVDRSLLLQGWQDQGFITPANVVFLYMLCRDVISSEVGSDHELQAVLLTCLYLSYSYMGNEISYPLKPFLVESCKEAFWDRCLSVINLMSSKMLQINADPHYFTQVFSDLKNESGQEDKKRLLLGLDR
Sequence of GSK-3α (P49840 whole entry, species assumed): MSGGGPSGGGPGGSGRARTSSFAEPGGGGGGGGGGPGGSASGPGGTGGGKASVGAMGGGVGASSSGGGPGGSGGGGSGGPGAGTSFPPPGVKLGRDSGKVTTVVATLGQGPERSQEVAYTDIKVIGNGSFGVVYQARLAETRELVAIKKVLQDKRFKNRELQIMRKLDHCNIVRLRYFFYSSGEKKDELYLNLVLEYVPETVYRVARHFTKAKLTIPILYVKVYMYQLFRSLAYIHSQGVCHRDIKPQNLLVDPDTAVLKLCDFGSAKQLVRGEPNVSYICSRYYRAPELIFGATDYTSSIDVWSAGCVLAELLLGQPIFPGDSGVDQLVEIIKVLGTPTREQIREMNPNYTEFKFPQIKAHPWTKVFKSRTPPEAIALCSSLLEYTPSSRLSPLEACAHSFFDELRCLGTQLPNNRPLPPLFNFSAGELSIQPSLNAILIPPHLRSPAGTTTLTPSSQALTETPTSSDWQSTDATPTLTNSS
Sequence of CDK1/cyclinB (h) (P06493 whole entry): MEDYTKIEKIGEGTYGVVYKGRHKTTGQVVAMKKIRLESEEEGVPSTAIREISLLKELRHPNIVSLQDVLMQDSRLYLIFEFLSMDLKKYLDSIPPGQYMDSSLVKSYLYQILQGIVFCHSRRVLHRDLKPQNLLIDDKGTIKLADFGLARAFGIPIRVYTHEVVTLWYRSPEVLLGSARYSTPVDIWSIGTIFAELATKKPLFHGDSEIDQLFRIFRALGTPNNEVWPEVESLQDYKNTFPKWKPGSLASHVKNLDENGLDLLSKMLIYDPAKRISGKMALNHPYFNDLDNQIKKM
Sequence of CDK1/cyclinB (h) (P14635 whole entry partner): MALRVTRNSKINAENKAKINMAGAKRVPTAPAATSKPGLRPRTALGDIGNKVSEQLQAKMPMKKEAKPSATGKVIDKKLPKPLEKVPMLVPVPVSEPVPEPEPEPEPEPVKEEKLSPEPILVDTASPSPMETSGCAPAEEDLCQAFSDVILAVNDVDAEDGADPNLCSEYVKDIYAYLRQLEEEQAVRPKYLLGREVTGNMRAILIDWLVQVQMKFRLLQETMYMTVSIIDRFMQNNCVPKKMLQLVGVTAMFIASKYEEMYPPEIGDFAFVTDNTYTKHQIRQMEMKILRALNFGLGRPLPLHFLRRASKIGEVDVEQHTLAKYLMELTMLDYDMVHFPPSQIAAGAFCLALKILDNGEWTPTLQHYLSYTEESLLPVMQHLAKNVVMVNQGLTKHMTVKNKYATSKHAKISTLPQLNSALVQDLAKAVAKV
Sequence of GSK-3β (P49841 whole entry, species assumed): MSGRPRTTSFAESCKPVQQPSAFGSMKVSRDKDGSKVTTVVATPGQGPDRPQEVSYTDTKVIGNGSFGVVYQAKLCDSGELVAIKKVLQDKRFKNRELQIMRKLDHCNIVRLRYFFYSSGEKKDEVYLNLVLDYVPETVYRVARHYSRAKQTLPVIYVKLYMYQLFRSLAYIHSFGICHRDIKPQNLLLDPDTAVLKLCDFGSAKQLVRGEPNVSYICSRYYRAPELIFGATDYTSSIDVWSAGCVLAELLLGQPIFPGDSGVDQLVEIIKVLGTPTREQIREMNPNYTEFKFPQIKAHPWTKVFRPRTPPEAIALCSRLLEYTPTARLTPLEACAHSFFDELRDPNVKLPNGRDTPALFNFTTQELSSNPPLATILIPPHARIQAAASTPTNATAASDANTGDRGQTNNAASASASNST
Sequence of CDK7/cyclinH/MAT1 (h) (P50613 whole entry): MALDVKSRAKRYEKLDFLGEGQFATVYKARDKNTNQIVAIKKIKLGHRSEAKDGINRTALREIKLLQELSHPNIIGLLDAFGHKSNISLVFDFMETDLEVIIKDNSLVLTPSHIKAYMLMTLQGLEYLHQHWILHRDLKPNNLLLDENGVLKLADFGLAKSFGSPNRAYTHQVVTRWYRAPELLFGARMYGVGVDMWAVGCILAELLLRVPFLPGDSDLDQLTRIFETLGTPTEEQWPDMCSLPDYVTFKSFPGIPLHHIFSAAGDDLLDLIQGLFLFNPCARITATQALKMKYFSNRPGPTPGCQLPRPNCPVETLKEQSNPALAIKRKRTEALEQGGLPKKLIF
Sequence of CDK7/cyclinH/MAT1 (h) (P51946 whole entry partner): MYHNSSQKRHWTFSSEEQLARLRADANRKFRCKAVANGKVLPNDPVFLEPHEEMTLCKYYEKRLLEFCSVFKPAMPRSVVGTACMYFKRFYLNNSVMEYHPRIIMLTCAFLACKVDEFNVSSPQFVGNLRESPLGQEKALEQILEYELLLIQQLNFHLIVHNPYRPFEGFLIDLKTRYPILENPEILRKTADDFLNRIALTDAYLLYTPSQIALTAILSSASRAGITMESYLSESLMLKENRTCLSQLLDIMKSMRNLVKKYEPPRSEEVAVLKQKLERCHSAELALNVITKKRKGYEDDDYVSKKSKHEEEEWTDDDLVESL
Sequence of CDK7/cyclinH/MAT1 (h) (P51948 whole entry partner): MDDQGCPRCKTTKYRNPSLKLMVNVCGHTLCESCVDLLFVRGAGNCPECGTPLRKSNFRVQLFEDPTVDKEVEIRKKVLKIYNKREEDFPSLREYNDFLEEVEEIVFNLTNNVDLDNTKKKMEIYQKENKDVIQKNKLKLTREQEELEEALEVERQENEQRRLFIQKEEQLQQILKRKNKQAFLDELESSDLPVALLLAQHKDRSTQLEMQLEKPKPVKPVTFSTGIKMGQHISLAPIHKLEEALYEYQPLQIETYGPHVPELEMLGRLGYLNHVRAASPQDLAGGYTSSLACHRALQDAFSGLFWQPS

SMILES	C3.5 score (CDK3/cyclinE (h))	C3.8 score (CDK7/cyclinH/MAT1 (h))	C3.3 score (CDK2/cyclinA (h))	C3.4 score (CDK2/cyclinE (h))	IC50 (GSK-3α)	IC50 (GSK-3β)	C3.6 score (CDK5/p35 human)	C3.7 score (CDK6/cyclinD3 human)	C3.2 score (CDK1/cyclinB (h))	C2 Score (Chang cells)
O=C1NCCc2cccc(c2)Nc2ncnc(n2)-c2ccnc(c2)CCCN2C[C@H](O)C[C@@H]12 [Compound 25]	3 (Score 3 = 60-80% inhibition)	2 (Score 2 = 30-60% inhibition)	4 (Score 4 = >80% inhibition)	4 (Score 4 = >80% inhibition)	10 to 100 nM	10 to 100 nM	2 (Score 2 = 30-60% inhibition)	2 (Score 2 = 30-60% inhibition)	3 (Score 3 = 60-80% inhibition)	–
O=C1NCCc2cccc(c2)Nc2ncnc(n2)-c2ccnc(c2)CCCN2CCCC1C2 (stereo not shown) [Compound 26]	3 (Score 3 = 60-80% inhibition)	2 (Score 2 = 30-60% inhibition)	3 (Score 3 = 60-80% inhibition)	4 (Score 4 = >80% inhibition)	10 to 100 nM	10 to 100 nM	2 (Score 2 = 30-60% inhibition)	1 (Score 1 = 10-30% inhibition)	1 (Score 1 = 10-30% inhibition)	–
O=C1CC2CCN(CCCc3cc(ccn3)-c3ncnc(n3)Nc3cccc(c3)CCN1)CC2 [Compound 27]	1 (Score 1 = 10-30% inhibition)	1 (Score 1 = 10-30% inhibition)	3 (Score 3 = 60-80% inhibition)	2 (Score 2 = 30-60% inhibition)	100 to 1000 nM	100 to 1000 nM	2 (Score 2 = 30-60% inhibition)	1 (Score 1 = 10-30% inhibition)	2 (Score 2 = 30-60% inhibition)	–
CN1CC(=O)NCCCc2cc(ccn2)-c2ncnc(n2)Nc2cc(Cl)ccc2C1 [Compound 31]	4 (Score 4 = >80% inhibition)	1 (Score 1 = 10-30% inhibition)	2 (Score 2 = 30-60% inhibition)	3 (Score 3 = 60-80% inhibition)	> 1000 nM	> 1000 nM	4 (Score 4 = >80% inhibition)	1 (Score 1 = 10-30% inhibition)	3 (Score 3 = 60-80% inhibition)	–
CN1CCC(=O)NCCCc2cc(ccn2)-c2ncnc(n2)Nc2cc(Cl)cc(c2)C1 [Compound 32]	3 (Score 3 = 60-80% inhibition)	2 (Score 2 = 30-60% inhibition)	4 (Score 4 = >80% inhibition)	4 (Score 4 = >80% inhibition)	10 to 100 nM	10 to 100 nM	4 (Score 4 = >80% inhibition)	1 (Score 1 = 10-30% inhibition)	4 (Score 4 = >80% inhibition)	–
O=C1CCN2CCN(CC2)Cc2cc(Cl)cc(c2)Nc2ncnc(n2)-c2ccnc(c2)CCCN1 [Compound 37]	4 (Score 4 = >80% inhibition)	3 (Score 3 = 60-80% inhibition)	4 (Score 4 = >80% inhibition)	4 (Score 4 = >80% inhibition)	10 to 100 nM	10 to 100 nM	4 (Score 4 = >80% inhibition)	2 (Score 2 = 30-60% inhibition)	4 (Score 4 = >80% inhibition)	–
CC(C)N1CC(=O)NCCCc2cc(ccn2)-c2ncnc(n2)Nc2cccc(c2)C1 [Compound 65]	–	–	2 (Score 2 = 30-60% inhibition)	–	< 10 nM	–	–	–	–	3 (Score 3=60-80% increase)
CN1CC(=O)N(C)CCCc2cc(ccn2)-c2ncnc(n2)Nc2cccc(c2)C1 [Compound 67]	–	–	–	–	< 10 nM	–	–	–	–	4 (Score 4=>80% increase in D-glucose incorporation)
CN1CCCc2cc(ccc2F)-c2ncnc(n2)Nc2cccc(c2)CNC(=O)C1 [Compound 70]	–	–	–	–	< 10 nM	–	–	–	–	4 (Score 4=>80% increase in D-glucose incorporation)
